Values after ≈ are worked out from the molar mass of the structure shown. Values joined by “and” are separate entries in the source; they are usually repeats but may differ in a detail not shown here. Equal values may be shown once.
How the values were obtained:
Type in all cases: cell-based
[1] = tested on: methicillin-resistant Staphylococcus aureus (MRSA); test: Susceptibility (MIC/MBC) of MRSA clinical isolates; conditions: for MBC50(15) / MIC50(15) / MBC90(26) / MIC90(26): 29 MRSA clinical isolates; for MBC50(15) / MIC50(15): rank 15; for MBC90(26) / MIC90(26): rank 26; for MBC / MIC: individual MRSA clinical isolates, values listed by rank order 1-29
Acinetobacter strains = test: Checkerboard synergy study (FIC/FBC index); conditions: combined with P4075EC+EDTA
Burkholderia strains = test: Checkerboard synergy study (FIC/FBC index); conditions: combined with P4075EC+EDTA
Stenotrophomonas strains = test: Checkerboard synergy study (FIC/FBC index); conditions: combined with P4075EC+EDTA
[2] = share of 10 Acinetobacter strains with synergy
[3] = share of ten Burkholderia strains with synergy
[4] = share of Stenotrophomonas strains with synergy

SMILES: CCC[C@@H]1C[C@@H](C(=O)N[C@@H]([C@H]2O[C@H](SC)[C@H](O)[C@@H](O)[C@H]2O)[C@H](C)Cl)N(C)C1 [Clind]
- MBC50(15) [1]: >64 µg/mL
- MIC50(15) [1]: >64 µg/mL
- MBC90(26) [1]: >64 µg/mL
- MIC90(26) [1]: >64 µg/mL
- MBC [1]: >64 μg/ml (17×) and >2 μg/ml (10×) and 2 μg/ml and 1 μg/ml
- MIC [1]: >64 μg/ml (17×) and 0.125 μg/ml (12×)

SMILES: C[C@H]1c2cccc(O)c2C(=O)C2=C(O)[C@]3(O)C(=O)C(C(N)=O)=C(O)[C@@H](N(C)C)[C@@H]3[C@@H](O)[C@@H]21 [Dox]
- MBC50(15) [1]: >4 µg/mL
- MIC50(15) [1]: 0.25 µg/mL (≈ 0.563 µM)
- MBC90(26) [1]: >64 µg/mL
- MIC90(26) [1]: 4 µg/mL (≈ 9 µM)
- MBC [1]: >128 μg/ml and >64 μg/ml (4×) and >4 μg/ml (21×) and 2 μg/ml and 1 μg/ml (2×)
- MIC [1]: 4 μg/ml (4×) and 0.25 μg/ml (25×)

SMILES: CC[C@H]1OC(=O)[C@H](C)[C@@H](O[C@H]2C[C@@](C)(OC)[C@@H](O)[C@H](C)O2)[C@H](C)[C@@H](O[C@@H]2O[C@H](C)C[C@H](N(C)C)[C@H]2O)[C@](C)(O)C[C@@H](C)C(=O)[C@H](C)[C@@H](O)[C@]1(C)O [Eryth]
- MIC50(15) [1]: 64 µg/mL (≈ 87.2 µM)
- MBC [1]: 64 μg/ml and >4 μg/ml (4×)
- MIC [1]: 64 μg/ml (6×) and 32 μg/ml (3×) and 16 μg/ml and 8 μg/ml and 0.25 μg/ml (4×)

SMILES: C[C@H]1COc2c(N3CCN(C)CC3)c(F)cc3c(=O)c(C(=O)O)cn1c23 [Levo]
- MBC50(15) [1]: 16 µg/mL (≈ 44.3 µM)
- MIC50(15) [1]: 8 µg/mL (≈ 22.1 µM)
- MBC90(26) [1]: >64 µg/mL
- MIC90(26) [1]: 32 µg/mL (≈ 88.6 µM)
- MBC [1]: >64 μg/ml (6×) and 64 μg/ml (2×) and >32 μg/ml and 32 μg/ml (5×) and 16 μg/ml (3×) and 8 μg/ml (4×) and 4 μg/ml and 1 μg/ml and 0.5 μg/ml and 0.25 μg/ml (5×)
- MIC [1]: >64 μg/ml (2×) and 32 μg/ml (5×) and 16 μg/ml (4×) and 8 μg/ml (5×) and 4 μg/ml (5×) and 2 μg/ml and 0.5 μg/ml and 0.25 μg/ml (3×) and 0.125 μg/ml (3×)

SMILES: CC(=O)O.NCc1ccc(S(N)(=O)=O)cc1 [Maf. Acet.]
- MBC50(15) [1]: >128 µg/mL
- MBC90(26) [1]: >128 µg/mL
- MBC [1]: >128 µg/mL

SMILES: CC(=O)O.NCc1ccc(S(N)(=O)=O)cc1 [Maf. Acet]
- MIC50(15) [1]: >128 µg/mL
- MIC90(26) [1]: >128 µg/mL
- MIC [1]: >128 μg/ml (28×) and 128 μg/ml

SMILES: C/C(=C\C(=O)OCCCCCCCCC(=O)O)C[C@@H]1OC[C@H](C[C@@H]2O[C@H]2[C@@H](C)[C@H](C)O)[C@@H](O)[C@H]1O [Mup]
- MBC50(15) [1]: >2 µg/mL
- MIC50(15) [1]: 0.25 µg/mL (≈ 0.499 µM)
- MBC90(26) [1]: >64 µg/mL
- MIC90(26) [1]: >64 µg/mL
- MBC [1]: >64 μg/ml (9×) and >8 μg/ml and >4 μg/ml (5×) and >2 μg/ml (11×) and 1 μg/ml (3×)
- MIC [1]: >64 μg/ml (8×) and 16 μg/ml and 0.25 μg/ml (9×) and 0.125 μg/ml (11×)

SMILES: NC[C@H]1O[C@H](O[C@H]2[C@H](O)[C@@H](O[C@H]3O[C@H](CO)[C@@H](O)[C@H](N)[C@H]3O)[C@H](N)C[C@@H]2N)[C@H](N)C[C@@H]1O [Tobra]
- FBC (Acinetobacter strains; isolate NB31): 1.50
- FIC (Acinetobacter strains; isolate NB31): 0.98
- Synergy (FBC) (Acinetobacter strains; isolate NB31): no
- Synergy (FIC) (Acinetobacter strains; isolate NB31): indifferent
- FBC (Acinetobacter strains; isolate NB32): 1.79
- FIC (Acinetobacter strains; isolate NB32): 0.88
- Synergy (FBC) (Acinetobacter strains; isolate NB32): no
- Synergy (FIC) (Acinetobacter strains; isolate NB32): indifferent
- FBC (Acinetobacter strains; isolate NB33): 1.75
- Synergy (FBC) (Acinetobacter strains; isolate NB33): no
- Synergy (FIC) (Acinetobacter strains; isolate NB33): indifferent
- FBC (Acinetobacter strains; isolate NB34): 0.24
- FIC (Acinetobacter strains; isolate NB34): 0.41
- Synergy (FBC) (Acinetobacter strains; isolate NB34): yes
- Synergy (FIC) (Acinetobacter strains; isolate NB34): yes
- FIC (Acinetobacter strains; isolate NB35): 1.21
- Synergy (FBC) (Acinetobacter strains; isolate NB35): no
- Synergy (FIC) (Acinetobacter strains; isolate NB35): indifferent
- FBC (Acinetobacter strains; isolate NB36): 2.29
- FIC (Acinetobacter strains; isolate NB36): 3.30
- Synergy (FBC) (Acinetobacter strains; isolate NB36): no
- Synergy (FIC) (Acinetobacter strains; isolate NB36): indifferent
- FBC (Acinetobacter strains; isolate NB37): 1.72
- FIC (Acinetobacter strains; isolate NB37): 0.75
- Synergy (FBC) (Acinetobacter strains; isolate NB37): no
- Synergy (FIC) (Acinetobacter strains; isolate NB37): indifferent
- FBC (Acinetobacter strains; isolate NB38): 1.57
- FIC (Acinetobacter strains; isolate NB38): 1.05
- Synergy (FBC) (Acinetobacter strains; isolate NB38): no
- Synergy (FIC) (Acinetobacter strains; isolate NB38): indifferent
- FBC (Acinetobacter strains; isolate NB39): 3.52
- FIC (Acinetobacter strains; isolate NB39): 3.30
- Synergy (FBC) (Acinetobacter strains; isolate NB39): no
- Synergy (FIC) (Acinetobacter strains; isolate NB39): indifferent
- FBC (Acinetobacter strains; isolate NB40): 3.01
- FIC (Acinetobacter strains; isolate NB40): 3.01
- Synergy (FBC) (Acinetobacter strains; isolate NB40): no
- Synergy (FIC) (Acinetobacter strains; isolate NB40): indifferent
- % FBC Synergy (Acinetobacter strains; [2]): 10%
- % FIC Synergy (Acinetobacter strains; [2]): 10%
- FBC (Burkholderia strains; isolate NB21): 0.48
- FIC (Burkholderia strains; isolate NB21): 0.27
- Synergy (FBC) (Burkholderia strains; isolate NB21): yes
- Synergy (FIC) (Burkholderia strains; isolate NB21): yes
- FBC (Burkholderia strains; isolate NB22): 1.23
- FIC (Burkholderia strains; isolate NB22): 0.35
- Synergy (FBC) (Burkholderia strains; isolate NB22): indifferent
- Synergy (FIC) (Burkholderia strains; isolate NB22): yes
- FBC (Burkholderia strains; isolate NB23): 1.09
- FIC (Burkholderia strains; isolate NB23): 1.06
- Synergy (FBC) (Burkholderia strains; isolate NB23): indifferent
- Synergy (FIC) (Burkholderia strains; isolate NB23): indifferent
- FBC (Burkholderia strains; isolate NB24): 1.36
- FIC (Burkholderia strains; isolate NB24): 1.31
- Synergy (FBC) (Burkholderia strains; isolate NB24): indifferent
- Synergy (FIC) (Burkholderia strains; isolate NB24): indifferent
- FBC (Burkholderia strains; isolate NB25): 0.99
- FIC (Burkholderia strains; isolate NB25): 1.45
- Synergy (FBC) (Burkholderia strains; isolate NB25): indifferent
- Synergy (FIC) (Burkholderia strains; isolate NB25): indifferent
- FBC (Burkholderia strains; isolate NB26): 0.92
- FIC (Burkholderia strains; isolate NB26): 0.12
- Synergy (FBC) (Burkholderia strains; isolate NB26): indifferent
- Synergy (FIC) (Burkholderia strains; isolate NB26): yes
- FBC (Burkholderia strains; isolate NB27): 1.27
- FIC (Burkholderia strains; isolate NB27): 1.44
- Synergy (FBC) (Burkholderia strains; isolate NB27): indifferent
- Synergy (FIC) (Burkholderia strains; isolate NB27): indifferent
- FBC (Burkholderia strains; isolate NB28b): 1.06
- FIC (Burkholderia strains; isolate NB28b): 0.54
- Synergy (FBC) (Burkholderia strains; isolate NB28b): indifferent
- Synergy (FIC) (Burkholderia strains; isolate NB28b): yes
- FBC (Burkholderia strains; isolate NB29): 0.07
- FIC (Burkholderia strains; isolate NB29): 0.32
- Synergy (FBC) (Burkholderia strains; isolate NB29): yes
- Synergy (FIC) (Burkholderia strains; isolate NB29): yes
- FBC (Burkholderia strains; isolate NB30): 0.54
- FIC (Burkholderia strains; isolate NB30): 0.27
- Synergy (FBC) (Burkholderia strains; isolate NB30): yes
- Synergy (FIC) (Burkholderia strains; isolate NB30): yes
- % FBC Synergy (Burkholderia strains; [3]): 30%
- % FIC Synergy (Burkholderia strains; [3]): 50%
- FBC (Stenotrophomonas strains; isolate NB42): 2.15
- FIC (Stenotrophomonas strains; isolate NB42): 0.14
- Synergy (FBC) (Stenotrophomonas strains; isolate NB42): indifferent
- Synergy (FIC) (Stenotrophomonas strains; isolate NB42): yes
- FBC (Stenotrophomonas strains; isolate NB43): 2.29
- FIC (Stenotrophomonas strains; isolate NB43): 1.40
- Synergy (FBC) (Stenotrophomonas strains; isolate NB43): indifferent
- Synergy (FIC) (Stenotrophomonas strains; isolate NB43): indifferent
- FBC (Stenotrophomonas strains; isolate NB44): 2.86
- FIC (Stenotrophomonas strains; isolate NB44): 1.5
- Synergy (FBC) (Stenotrophomonas strains; isolate NB44): indifferent
- Synergy (FIC) (Stenotrophomonas strains; isolate NB44): indifferent
- FBC (Stenotrophomonas strains; isolate NB45): 1.50
- FIC (Stenotrophomonas strains; isolate NB45): 0.97
- Synergy (FBC) (Stenotrophomonas strains; isolate NB45): indifferent
- Synergy (FIC) (Stenotrophomonas strains; isolate NB45): indifferent
- FBC (Stenotrophomonas strains; isolate Steno 1): 1.57
- FIC (Stenotrophomonas strains; isolate Steno 1): 0.79
- Synergy (FBC) (Stenotrophomonas strains; isolate Steno 1): indifferent
- Synergy (FIC) (Stenotrophomonas strains; isolate Steno 1): indifferent
- FBC (Stenotrophomonas strains; isolate Steno 2): 2.23
- FIC (Stenotrophomonas strains; isolate Steno 2): 0.04
- Synergy (FBC) (Stenotrophomonas strains; isolate Steno 2): indifferent
- Synergy (FIC) (Stenotrophomonas strains; isolate Steno 2): yes
- FBC (Stenotrophomonas strains; isolate Steno 3): 1.29
- FIC (Stenotrophomonas strains; isolate Steno 3): 0.79
- Synergy (FBC) (Stenotrophomonas strains; isolate Steno 3): indifferent
- Synergy (FIC) (Stenotrophomonas strains; isolate Steno 3): indifferent
- FBC (Stenotrophomonas strains; isolate Steno 4): 1.61
- FIC (Stenotrophomonas strains; isolate Steno 4): 1.72
- Synergy (FBC) (Stenotrophomonas strains; isolate Steno 4): indifferent
- Synergy (FIC) (Stenotrophomonas strains; isolate Steno 4): indifferent
- FBC (Stenotrophomonas strains; isolate Steno 6): 0.89
- FIC (Stenotrophomonas strains; isolate Steno 6): 0.59
- Synergy (FBC) (Stenotrophomonas strains; isolate Steno 6): indifferent
- Synergy (FIC) (Stenotrophomonas strains; isolate Steno 6): indifferent
- FBC (Stenotrophomonas strains; isolate Steno 8): 1.15
- FIC (Stenotrophomonas strains; isolate Steno 8): 0.63
- Synergy (FBC) (Stenotrophomonas strains; isolate Steno 8): indifferent
- Synergy (FIC) (Stenotrophomonas strains; isolate Steno 8): indifferent
- % FBC Synergy (Stenotrophomonas strains; [4]): 0%
- % FIC Synergy (Stenotrophomonas strains; [4]): 20%

Reference: patent US20100092526A1, “NANOEMULSION THERAPEUTIC COMPOSITIONS AND METHODS OF USING THE SAME” (NanoBio Corporation, priority 2008, published 2010)
